Results published in patent US20190046627A1, “USE OF A GNP-LLO91-99 COMPLEX FOR THE TREATMENT AND PREVENTION OF CANCER” (FUNDACIÓN INSTITUTO DE INVESTIGACIÓN MARQUES DE VALDECILLA, priority 2016, published 2019).
“Also recorded” adds a separate entry of the source.

Legend:
[1] = test system: murine melanoma B16OVA; experiment: Prevention of tumor growth, intraperitoneal melanoma after preventive treatment (Example 5); type: in vivo, mice; details: 50 μg/ml intraperitoneal 7 days before i.p. B16OVA, adult C57BL/6
Description: For the comparative study of the prevention of tumor growth in adults between the therapy of the invention and known anti-tumor therapies, the following therapies (50 μg/ml) were inoculated in female adults of the C57BL/6 strain in an intraperitoneal manner: LLO91-99 (only peptide from listeriolysin O of Listeria monocytogenes, LLO91-99), GNP (empty gluconanoparticles), GNP-LLO91-99 (gluconanoparticles synthesized with the peptide from listeriolysin O of Listeria monocytogenes, LLO91-99), GNP-GAPDH1-22 (nanoparticles synthesized with the peptide from glyceraldehyde-3-phosphate dehydrogenase of Listeria monocytogenes, GAPDH1-22) or saline (NT).
Following 7 days preventative post-treatment, the tumors were established following inoculation with 5×10^6 cells of murine melanoma B16OVA in an intraperitoneal manner. Following 7 days post-established of the tumor, the mice were sacrificed and the recovered tumors were measured by means of a gauge and the tumors were analyzed by means of immunohistochemical staining. The results of the reduction of the tumor growth and their intraperitoneal position are shown in FIG. 4A and FIG. 4B and the results of the analysis of the immunohistochemical staining in FIG. 4C.

[2] = test system: murine melanoma B16F10; experiment: Reduction of the size of the tumor, subcutaneous murine melanoma in adult mice (Example 2); type: in vivo; details: adult C57BL/6 mice, s.c. B16F10 established 7 days, 50 μg/ml inoculated in the tumors for 5 days
Description: For the study of the reduction of the size of the tumor making use of different therapies and their comparison with that of the invention, 1×10^6 cells of murine melanoma B16F10 were inoculated in a subcutaneous manner in the left ventral flank of 8-12-week old female mice of the C57BL/6 strain.
(§1) After 7 days post-inoculation, 50 μg/ml of the following therapies were inoculated in the tumors for 5 days: LLO91-99 (only peptide from listeriolysin O of Listeria monocytogenes, LLO91-99), GNP (empty gluconanoparticles), GNP-LLO91-99 (gluconanoparticles synthesized with the peptide from listeriolysin O of Listeria monocytogenes, LLO91-99), GNP-GAPDH1-22 (nanoparticles synthesized with the peptide from glyceraldehyde-3-phosphate dehydrogenase of Listeria monocytogenes, GAPDH1-22) or no particle (NT). Dendritic cells loaded with the LLO91-99 (1×10^6 DC-LLO91-99) peptide were also included as a control, a vector previously used in therapy.
(§2) Following this treatment, the mice were sacrificed and the tumors recovered, measuring their size with a gauge.

[3] = test system: murine melanoma B16F10; experiment: Reduction of the size of the tumor in newborns (Example 6); type: in vivo; details: 9-day old Balb/c mice, s.c. B16F10 established 5 days, 50 μg/ml in the tumors for 5 days
Description: For the study of the reduction of the size of the tumor in newborns making use of different therapies and their comparison with that of the invention, 5×10^5 cells of murine melanoma B16F10 were inoculated in a subcutaneous manner in the interscapular area of 9-day old female mice of the Balb/c strain.
as §1, with “Following 5” for “After 7”, “GAPDH1-22). As” for “GAPDH1-22) or no particle (NT). Dendritic cells loaded with the LLO91-99 (1×10^6 DC-LLO91-99) peptide were also included as”, “therapy was also included, dendritic cells loaded with the LLO91-99 (1×10^5 DC-LLO91-99) peptide.” for “therapy.”
as §2

Question: How did the “preventative / therapeutic effect on the melanoma (in words)” value [1] turn out when “H-Gly-Tyr-Lys-Asp-Gly-Asn-Glu-Tyr-Ile-OH (H-GYKDGNEYI-OH) [LLO91-99, only peptide from listeriolysin O of Listeria monocytogenes, LLO91-99]” was run?
Answer: The value was “failed to achieve any therapeutic effect”.

Question: And the “therapeutic effect on the melanoma (in words)” value [2]?
Answer: Its value is “do not achieve any therapeutic effect; also recorded: failed to achieve any therapeutic effect”.

Question: And the “therapeutic effect on the melanoma in newborns (in words)” value [3]?
Answer: Its value is “failed to achieve any therapeutic effect”.
